Molecules are shown by their SMILES. Some results are limits rather than exact numbers.

The subject of this experiment is HBV viral production from HepAD38 cells. In words: Activity of test compounds on viral production from HepAD38 cells (viral load by qPCR of HBV core sequence in supernatant). The class given is cell-based. As to conditions: Hepatitis B virus, 120 h, 5 days incubation, HBV DNA in supernatant by qPCR, top concentration 10 μM, read-out: Viral Load EC50 Activity range. The procedure:
Assay Measuring Activity of Test Compounds on Viral Production from HepAD38 Cells
HepAD38 cells grown in a T-150 flask (Corning, cat #: 430825) with Growth Medium (DMEM/F12 (1:1) (Hyclone, cat #: SH30023.02), 1×Pen/Strep (Invitrogen, cat #: 15140-122), 10% FBS (Tissue Culture Biologics, cat #: 101), 250 μg/mL G418 (Alfa Aesar, cat #: J62671), 1 μg/mL Tetracycline (Teknova, cat #: T3320)) were detached with 0.25% trypsin-EDTA (Invitrogen, cat #: 25200-056). Tetracycline-free treatment medium (15 mL DMEM/F12 (1:1) 1× Pen/step, with 2% FBS, Tet-system approved (Clontech, cat #: 631106) were then added to mix, transferred into a 50 ml conical tube (Falcon, cat #: 21008-918) and spun at 1300 rpm for 5 min. Pelleted cells were then re-suspended/washed with 50 mL of 1×DPBS (Invitrogen, cat #: 14190-136) 2 times and 50 mL treatment medium twice. HepAD38 cells were then re-suspended with 10 mL of treatment medium, syringed and counted. Wells of 96-well clear bottom TC plate (Corning, cat #: 3904) were seeded at 50,000 cells/well in 180 μL of treatment medium, and 20 μL of either 10% DMSO (Sigma, cat #: D4540) as controls or a 10× solution of test compounds in 10% DMSO in treatment media was added for a final compound concentration starting at 10 μM, and plates were incubated in 5% CO2 incubator at 37° C. for 5 days.
Subsequently viral load production was assayed by quantitative PCR (qPCR) of the HBV core sequence. PCR reaction mixture containing forward primers HBV-f 5′-CTGTGCCTTGGGTGGCTTT-3′, which is SEQ ID NO 1, (IDT DNA), Reverse primers HBV-r 5′-[…]-3′, which is SEQ ID NO 2 (IDT DNA), Fluorescent TaqMan™ Probes HBV-probe 5′-FAM/AGCTCCAAA/ZEN/[…]/3IABkFQ-3′ (IDT DNA), which is SEQ ID NO 3, 10 μL/well of PerfeCTa® qPCR ToughMix® (Quanta Biosciences, Cat #: 95114-05K), and 6 µL/well of DEPC water (Alfa Aesar, cat #: J62087) was prepared. Four μL of supernatant was added to 16 μL of the reaction mixture in a qPCR plate (Applied Biosytems, Cat #: 4309849), sealed with a film (Applied Biosystems, Cat #: 4311971), centrifuged for a few seconds, and subsequently run on an Applied Biosystems VIIA7. The PCR mixture was incubated at 45° C. for 5 min, then 95° C. for 10 min, followed by 40 cycles of 10 seconds at 95° C. and 20 seconds at 60° C. Viral load was quantified against known HBV DNA standards by using ViiA™ 7 Software. Viral load in the supernatant from wells with treated cells were compared against viral load in supernatant from DMSO control wells (≥3 per plate). Cell viability assay was performed with CellTiter-Glo Luminescent Cell Viability Assay (Promega, cat #: G7573) with modification. Mixed appropriate amount of CellTiter-Glo (CTG) 1×DPBS in a 1:1 ratio, added 100 uL of the mixture to each well followed completely removal of all supernatant in each well without touching cell surface. Incubated the plate at room temperature for 10 min on an orbital shaker, and then read the plate with a plate reader (TECAN M1000 or Envision). EC50 or CC50 values were calculated through curve-fitting of the four-parameter nonlinear-logistic-regression model (GraphPad Prism or Dotmatics). CC50 values were all >10 μM.
A general note: Quantitative PCR measures a nucleic acid by following its amplification.
Turning to `O=C(Nc1ccc(F)c(Cl)c1)C1CC(c2nccs2)NS(=O)(=O)N1CCc1c[nH]nn1` (racemic) [HBV-CSU-092, Cis-2-(2-(1H-1,2,3-Triazol-4-yl)ethyl)-N-(3-chloro-4-fluorophenyl)-5-(thiazol-2-yl)-1,2,6-thiadiazinane-3-carboxamide 1,1-dioxide], the EC50 (as a rule, the concentration at which the effect is half-maximal) was in the range of 1 to 5 µM.

Regarding `N#CCN1C(C(=O)Nc2ccc(F)c(Cl)c2)CC(c2nccs2)NS1(=O)=O` (racemic) [HBV-CSU-093, Cis-N-(3-Chloro-4-fluorophenyl)-2-(cyanomethyl)-5-(thiazol-2-yl)-1,2,6-thiadiazinane-3-carboxamide 1,1-dioxide], the half-maximal effective concentration (EC50) was greater than 5 µM.

Turning to `O=C(Nc1ccc(F)c(Cl)c1)C1CC(c2nccs2)NS(=O)(=O)N1CCOCc1ccccc1` (racemic) [HBV-CSU-095, Cis-2-(2-(benzyloxy)ethyl)-N-(3-chloro-4-fluorophenyl)-5-(thiazol-2-yl)-1,2,6-thiadiazinane-3-carboxamide 1,1-dioxide], the concentration for a half-maximal effect (EC50) lay within 1 to 5 µM.

`CSCCN1C(C(=O)Nc2ccc(F)c(Cl)c2)CC(c2nccs2)NS1(=O)=O` (racemic) [HBV-CSU-109, Cis-N-(3-Chloro-4-fluorophenyl)-2-(2-(methylthio)ethyl)-5-(thiazol-2-yl)-1,2,6-thiadiazinane-3-carboxamide 1,1-dioxide]: the EC50 was less than 1 µM.

Turning to `CN1[C@H](C(=O)Nc2ccc(F)c(Cl)c2)C[C@@H](c2ccc(Br)s2)NS1(=O)=O` (racemic) [HBV-CSU-114-Trans (Rac), Trans-5-(5-bromothiophen-2-yl)-N-(3-chloro-4-fluorophenyl)-2-methyl-1,2,6-thiadiazinane-3-carboxamide 1,1-dioxide], the 50% effective concentration (EC50) is greater than 5 µM.

Take `Cc1ccc(C2CC(C(=O)Nc3ccc(F)c(Cl)c3)N(C)S(=O)(=O)N2)s1` (racemic) [HBV-CSU-115, Cis-N-(3-chloro-4-fluorophenyl)-2-methyl-5-(5-methylthiophen-2-yl)-1,2,6-thiadiazinane-3-carboxamide 1,1-dioxide]: the EC50 was less than 1 µM.

For the compound `CN1C(C(=O)Nc2ccc(F)c(Cl)c2)CC(c2nnc(-c3ccccc3)s2)NS1(=O)=O` (racemic) [HBV-CSU-120, Cis-N-(3-Chloro-4-fluorophenyl)-2-methyl-5-(5-phenyl-1,3,4-thiadiazol-2-yl)-1,2,6-thiadiazinane-3-carboxamide 1,1-dioxide], the EC50 was less than 1 µM.

Consider `CN1C(C(=O)Nc2ccc(F)c(Cl)c2)CC(c2ncc(Br)s2)NS1(=O)=O` (racemic) [HBV-CSU-122, Cis-5-(5-bromothiazol-2-yl)-N-(3-chloro-4-fluorophenyl)-2-methyl-1,2,6-thiadiazinane-3-carboxamide 1,1-dioxide], for which the EC50 is less than 1 µM.

Take `CCOCCN1C(C(=O)Nc2ccc(F)c(Cl)c2)CC(c2nccs2)NS1(=O)=O` (racemic) [HBV-CSU-142, Cis-N-(3-Chloro-4-fluorophenyl)-2-(2-ethoxyethyl)-5-(thiazol-2-yl)-1,2,6-thiadiazinane-3-carboxamide 1,1-dioxide]: the concentration giving a half-maximal response (EC50) was less than 1 µM.

For `Cc1csc(C2CC(C(=O)Nc3ccc(F)c(Cl)c3)N(C)S(=O)(=O)N2)c1` (racemic) [HBV-CSU-147, Cis-N-(3-chloro-4-fluorophenyl)-2-methyl-5-(4-methylthiophen-2-yl)-1,2,6-thiadiazinane-3-carboxamide 1,1-dioxide], the EC50 was less than 1 µM.

Take `CN1C(C(=O)Nc2ccc(F)c(Cl)c2)CC(c2nc(Br)cs2)NS1(=O)=O` (racemic) [HBV-CSU-150, Cis-5-(4-Bromothiazol-2-yl)-N-(3-chloro-4-fluorophenyl)-2-methyl-1,2,6-thiadiazinane-3-carboxamide 1,1-dioxide]: the concentration for a half-maximal effect (EC50) was less than 1 µM.

As for `CN1C(C(=O)Nc2ccc(F)c(Cl)c2)CC(c2ccc(-c3ccc(C#N)c(F)c3)s2)NS1(=O)=O` (racemic) [HBV-CSU-156, Cis-N-(3-chloro-4-fluorophenyl)-5-(5-(4-cyano-3-fluorophenyl)thiophen-2-yl)-2-methyl-1,2,6-thiadiazinane-3-carboxamide 1,1-dioxide], the EC50 was less than 1 µM.

Consider `CN1C(C(=O)Nc2ccc(F)c(Cl)c2)CC(c2ccc(-c3ccc(C(F)(F)F)nc3)s2)NS1(=O)=O` (racemic) [HBV-CSU-158, Cis-N-(3-chloro-4-fluorophenyl)-2-methyl-5-(5-(6-(trifluoromethyl)pyridin-3-yl)thiophen-2-yl)-1,2,6-thiadiazinane-3-carboxamide 1,1-dioxide], for which the concentration for a half-maximal effect (EC50) was in the range of 1 to 5 µM.

On to `CN1C(C(=O)Nc2ccc(F)c(Cl)c2)CC(c2ccc(-c3cccnc3)s2)NS1(=O)=O` (racemic) [HBV-CSU-159, Cis-N-(3-chloro-4-fluorophenyl)-2-methyl-5-(5-(pyridin-3-yl)thiophen-2-yl)-1,2,6-thiadiazinane-3-carboxamide 1,1-dioxide], for which the EC50 was less than 1 µM.

On to `CN1C(C(=O)Nc2ccc(F)c(Cl)c2)CC(c2ccc(-c3ccccn3)s2)NS1(=O)=O` (racemic) [HBV-CSU-160, Cis-N-(3-chloro-4-fluorophenyl)-2-methyl-5-(5-(pyridin-2-yl)thiophen-2-yl)-1,2,6-thiadiazinane-3-carboxamide 1,1-dioxide], for which the EC50 is less than 1 µM.

Regarding `CN1C(C(=O)Nc2ccc(F)c(Cl)c2)CC(c2ccc(-c3cnn(C)c3)s2)NS1(=O)=O` (racemic) [HBV-CSU-161, Cis-N-(3-chloro-4-fluorophenyl)-2-methyl-5-(5-(1-methyl-1H-pyrazol-4-yl)thiophen-2-yl)-1,2,6-thiadiazinane-3-carboxamide 1,1-dioxide], the concentration for a half-maximal effect (EC50) was less than 1 µM.

On to `CN1[C@H](C(=O)Nc2ccc(F)c(Cl)c2)C[C@@H](c2ccc(-c3cnn(C)c3)s2)NS1(=O)=O` (racemic) [HBV-CSU-161-Trans (Rac), Trans-N-(3-chloro-4-fluorophenyl)-2-methyl-5-(5-(1-methyl-1H-pyrazol-4-yl)thiophen-2-yl)-1,2,6-thiadiazinane-3-carboxamide 1,1-dioxide], for which the 50% effective concentration (EC50) is 1 to 5 µM.

Turning to `CN1C(C(=O)Nc2ccc(F)c(Cl)c2)CC(c2ccc(-c3ccc(NS(C)(=O)=O)cc3)s2)NS1(=O)=O` (racemic) [HBV-CSU-163, Cis-N-(3-chloro-4-fluorophenyl)-2-methyl-5-(5-(4-(methylsulfonamido)phenyl)thiophen-2-yl)-1,2,6-thiadiazinane-3-carboxamide 1,1-dioxide], the EC50 is less than 1 µM.

As for `CN1C(C(=O)Nc2ccc(F)c(Cl)c2)CC(c2cc(-c3ccc(C#N)c(F)c3)cs2)NS1(=O)=O` (racemic) [HBV-CSU-164, Cis-N-(3-chloro-4-fluorophenyl)-5-(4-(4-cyano-3-fluorophenyl)thiophen-2-yl)-2-methyl-1,2,6-thiadiazinane-3-carboxamide 1,1-dioxide], the EC50 was less than 1 µM.

Take `CN1C(C(=O)Nc2ccc(F)c(Cl)c2)CC(c2cc(-c3ccc(Br)c(F)c3)cs2)NS1(=O)=O` (racemic) [HBV-CSU-165, Cis-N-(3-chloro-4-fluorophenyl)-5-(4-(4-bromo-3-fluorophenyl)thiophen-2-yl)-2-methyl-1,2,6-thiadiazinane-3-carboxamide 1,1-dioxide]: the EC50 was in the range of 1 to 5 µM.

For the compound `CN1C(C(=O)Nc2ccc(F)c(Cl)c2)CC(c2cc(-c3ccc(C(F)(F)F)nc3)cs2)NS1(=O)=O` (racemic) [HBV-CSU-166, Cis-N-(3-chloro-4-fluorophenyl)-2-methyl-5-(4-(6-(trifluoromethyl)pyridin-3-yl)thiophen-2-yl)-1,2,6-thiadiazinane-3-carboxamide 1,1-dioxide], the EC50 was less than 1 µM.

Values taken from patent US11078170B2 (Assembly Biosciences, Inc., priority 2017, dated 2021).
